Structures can show the parent of a compound that is named as a salt.
The compounds below were run against αvβ1 (Homo sapiens, UniProt P05556+P06756) (assay: Solid Phase Integrin αvβ1 Assay).
Format: binding
Protocol: (§1) The compounds exemplified in this document were tested for their ability to inhibit αvβ1 and αvβ6 in below described solid phase integrin assays.
Solid Phase Integrin αvβ1 Assay
96-well microtiter plates (4 HBX Immulon; Thermo Fisher Scientific, Waltham, MA) were coated with 100 μL/well of 1 μg/mL recombinant TGFb1-LAP in TBS at 4° C., overnight. The coating solution was removed, and plates were blocked with 200 μL/well of blocking and binding buffer (2% BSA/TBST, 1 mM MnCl2) at room temperature for 1 hr. Blocking buffer was removed and 50 μL of binding buffer and testing compounds were added. 50 μL of diluted αvβ1 (0.2 ug/mL in binding buffer) was added to wells (100 μL/well total) for and plates incubated for 90 min at room temperature. Wells were washed thrice with washing buffer (TBS, 0.05% Tween, 1 mM MnCl2) and plates were incubated with 100 μL/well of a 1:12500 dilution of streptavidin-horseradish peroxidase conjugate (Thermo Fisher Scientific) in binding buffer for 20 min at room temperature. Bound protein was detected using the substrate TMB. The IC50 values for testing compounds were calculated by Levenberg-Marquardt four parameter fitting logistics.

Chain of αvβ1 (P06756 31-992 limits assumed): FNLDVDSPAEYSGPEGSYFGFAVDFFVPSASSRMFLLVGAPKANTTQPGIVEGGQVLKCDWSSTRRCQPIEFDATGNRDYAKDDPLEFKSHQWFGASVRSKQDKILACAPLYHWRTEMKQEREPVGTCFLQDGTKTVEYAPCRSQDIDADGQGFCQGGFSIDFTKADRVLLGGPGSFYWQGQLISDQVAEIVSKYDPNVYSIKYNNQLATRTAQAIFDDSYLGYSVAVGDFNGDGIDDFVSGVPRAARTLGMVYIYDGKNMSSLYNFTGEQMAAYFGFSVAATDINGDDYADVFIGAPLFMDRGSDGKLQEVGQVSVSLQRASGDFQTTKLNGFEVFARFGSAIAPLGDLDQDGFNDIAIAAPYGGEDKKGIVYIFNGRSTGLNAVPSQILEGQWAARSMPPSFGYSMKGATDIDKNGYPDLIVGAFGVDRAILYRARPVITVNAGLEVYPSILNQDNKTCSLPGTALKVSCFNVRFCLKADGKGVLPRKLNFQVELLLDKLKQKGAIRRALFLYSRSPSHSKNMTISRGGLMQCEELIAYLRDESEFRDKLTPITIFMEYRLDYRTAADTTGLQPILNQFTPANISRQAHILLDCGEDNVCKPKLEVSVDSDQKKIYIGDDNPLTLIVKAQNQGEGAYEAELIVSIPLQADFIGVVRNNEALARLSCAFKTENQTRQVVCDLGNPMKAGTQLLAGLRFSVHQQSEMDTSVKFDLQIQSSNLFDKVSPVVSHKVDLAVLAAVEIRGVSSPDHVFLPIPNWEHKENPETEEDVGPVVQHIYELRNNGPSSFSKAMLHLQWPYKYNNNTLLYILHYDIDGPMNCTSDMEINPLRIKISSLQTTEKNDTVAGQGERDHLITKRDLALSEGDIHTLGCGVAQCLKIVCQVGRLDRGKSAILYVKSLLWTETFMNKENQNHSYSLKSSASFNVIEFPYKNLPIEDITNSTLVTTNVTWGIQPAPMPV
Chain of αvβ1 (P05556 21-728 limits assumed): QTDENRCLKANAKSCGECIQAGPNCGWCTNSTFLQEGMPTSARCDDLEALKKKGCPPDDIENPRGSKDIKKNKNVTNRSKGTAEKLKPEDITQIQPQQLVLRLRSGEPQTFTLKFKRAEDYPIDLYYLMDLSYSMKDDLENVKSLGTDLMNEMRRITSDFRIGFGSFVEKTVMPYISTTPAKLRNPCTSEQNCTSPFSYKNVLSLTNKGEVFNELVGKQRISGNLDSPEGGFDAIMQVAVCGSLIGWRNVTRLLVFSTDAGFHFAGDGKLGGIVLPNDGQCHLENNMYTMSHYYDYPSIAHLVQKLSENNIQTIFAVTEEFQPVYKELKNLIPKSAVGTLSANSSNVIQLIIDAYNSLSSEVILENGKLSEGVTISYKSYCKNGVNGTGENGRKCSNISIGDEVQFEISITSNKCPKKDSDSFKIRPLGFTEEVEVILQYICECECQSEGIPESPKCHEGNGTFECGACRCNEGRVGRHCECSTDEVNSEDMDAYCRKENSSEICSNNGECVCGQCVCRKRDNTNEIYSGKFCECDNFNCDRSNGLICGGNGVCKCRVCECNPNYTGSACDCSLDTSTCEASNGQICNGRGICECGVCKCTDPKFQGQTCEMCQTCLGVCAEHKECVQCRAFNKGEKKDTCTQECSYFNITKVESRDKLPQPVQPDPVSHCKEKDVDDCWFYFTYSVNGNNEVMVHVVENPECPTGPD

| IC50 [nM] | SMILES |
| --- | --- |
| > 1000 | O=C(O)C[C@H](NC(=O)[C@@H]1CCCN(CCCc2ccc3c(n2)NCCC3)C1)c1cccc(C(F)(F)F)c1 (single isomer, unassigned) [Compound 203-A, hydrochloride] |
| < 100 | O=C(O)C[C@@H](NC(=O)[C@@H]1CCCN(CCCc2ccc3c(n2)NCCC3)C1)c1cccc(C(F)(F)F)c1 (single isomer, unassigned) [Compound 203-B, hydrochloride] |
| < 100 | O=C(O)C[C@@H](NC(=O)[C@@H]1CCCN(CCCc2ccc3c(n2)NCCC3)C1)c1ccc2c(c1)CCCC2 (single isomer, unassigned) [Compound 204-B] |
| < 100 | CC1(C)CN(c2cccc([C@@H](NC(=O)[C@@H]3CCCN(CCCc4ccc5c(n4)NCCC5)C3)C(F)(F)C(=O)O)c2)CCO1 [Compound 300, (R)-3-(3-(2,2-dimethylmorpholino)phenyl)-2,2-difluoro-3-((R)-1-(3-(5,6,7,8-tetrahydro-1,8-naphthyridin-2-yl)propyl)piperidine-3-carboxamido)propanoic acid] |
| < 100 | CC(C)CNC(=O)[C@@H]1CCCC[C@H]1C(=O)N[C@@H](CNC(=O)[C@@H]1CCCN(CCCc2ccc3c(n2)NCCC3)C1)C(=O)O [Compound 526] |
| < 100 | O=C(O)C[C@H](NC(=O)[C@@H]1CCCN(CCCc2ccc3c(n2)NCCC3)C1)c1cccc(-n2cccn2)c1 [Compound 537] |
| < 100 | O=C(O)C[C@H](NC(=O)[C@@H]1CCCN(CCCc2ccc3c(n2)NCCC3)C1)c1cc(F)cc(C2CC2)c1 [Compound 558] |

These compounds were tested against αvβ6 (Homo sapiens, UniProt P06756+P18564) (assay: Solid Phase Integrin αvβ6 Assay).
Chain of αvβ6 (P06756 31-992 limits assumed): as the sequence (P06756 31-992 limits assumed) above
Chain of αvβ6 (P18564 22-707 limits assumed): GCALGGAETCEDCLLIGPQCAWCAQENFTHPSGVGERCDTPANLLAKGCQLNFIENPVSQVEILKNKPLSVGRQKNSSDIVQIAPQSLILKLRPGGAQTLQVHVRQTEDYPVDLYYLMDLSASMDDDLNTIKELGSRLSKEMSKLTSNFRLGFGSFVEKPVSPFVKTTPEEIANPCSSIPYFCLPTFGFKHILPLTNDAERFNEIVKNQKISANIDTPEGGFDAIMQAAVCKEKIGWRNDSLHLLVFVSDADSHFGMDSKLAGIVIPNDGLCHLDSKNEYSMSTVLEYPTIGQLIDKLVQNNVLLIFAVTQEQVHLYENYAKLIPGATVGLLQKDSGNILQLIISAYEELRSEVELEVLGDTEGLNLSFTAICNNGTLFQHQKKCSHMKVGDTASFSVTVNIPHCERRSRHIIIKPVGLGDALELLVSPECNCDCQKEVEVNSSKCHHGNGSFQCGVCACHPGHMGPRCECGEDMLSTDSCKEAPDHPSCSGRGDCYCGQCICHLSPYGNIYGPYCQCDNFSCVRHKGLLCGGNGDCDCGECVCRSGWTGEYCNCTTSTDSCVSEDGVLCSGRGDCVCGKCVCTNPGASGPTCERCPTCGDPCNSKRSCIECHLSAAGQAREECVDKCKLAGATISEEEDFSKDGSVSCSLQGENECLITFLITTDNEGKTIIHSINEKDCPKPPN
Format: binding
Protocol: as §1
Solid Phase Integrin αvβ6 Assay
96-well microtiter plates (4 HBX Immulon; Thermo Fisher Scientific, Waltham, MA) were coated with 100 μL/well of 1 μg/mL recombinant TGFb1-LAP in TBS at 4° C., overnight. The coating solution was removed, and plates were blocked with 200 μL/well of blocking and binding buffer (2% BSA/TBST, 1 mM MnCl2) at room temperature for 1 hr. Blocking buffer was removed and 50 uL of binding buffer and testing compounds were added. 50 μL of diluted αvβ6 (0.2 μg/mL in binding buffer) was added to wells (100 uL/well total) and plates incubated for 1 hr at room temperature. Wells were washed thrice with washing buffer (TBS, 0.05% Tween, 1 mM MnCl2) and plates were incubated with 100 μL/well of a 1:12500) dilution of streptavidin-horseradish peroxidase conjugate (Thermo Fisher Scientific) in binding buffer for 20 min at room temperature. Bound protein was detected using the substrate TMB. The IC50 values for testing compounds were calculated by Levenberg-Marquardt four parameter fitting logistics.

| IC50 [nM] | SMILES |
| --- | --- |
| 100 to 1000 | O=C(O)C[C@H](NC(=O)[C@@H]1CCCN(CCCc2ccc3c(n2)NCCC3)C1)c1cccc(C(F)(F)F)c1 (single isomer, unassigned) [Compound 203-A, hydrochloride] |
| < 100 | O=C(O)C[C@@H](NC(=O)[C@@H]1CCCN(CCCc2ccc3c(n2)NCCC3)C1)c1cccc(C(F)(F)F)c1 (single isomer, unassigned) [Compound 203-B, hydrochloride] |
| < 100 | O=C(O)C[C@@H](NC(=O)[C@@H]1CCCN(CCCc2ccc3c(n2)NCCC3)C1)c1ccc2c(c1)CCCC2 (single isomer, unassigned) [Compound 204-B] |
| 100 to 1000 | O=C(N[C@@H](CNC(=O)[C@@H]1CCCN(CCCc2ccc3c(n2)NCCC3)C1)C(=O)O)c1c(F)cccc1F [Compound 310] |
| < 100 | O=C(NC[C@@H](C(=O)O)c1ccc(-c2ccccc2)cc1)[C@@H]1CCCN(CCCc2ccc3c(n2)NCCC3)C1 [Compound 343] |
| < 100 | O=C(N[C@@H](CNC(=O)[C@@H]1CCCN(CCCc2ccc3c(n2)NCCC3)C1)C(=O)O)c1cccc(C2CC2)c1 [Compound 370] |
| < 100 | O=C(Cc1ccccc1Cl)N[C@@H](CNC(=O)[C@@H]1CCCN(CCCc2ccc3c(n2)NCCC3)C1)C(=O)O [Compound 545] |
| < 100 | O=C(N[C@@H](CNC(=O)[C@@H]1CCCN(CCCc2ccc3c(n2)NCCC3)C1)C(=O)O)c1ccc2c(c1)CCC2 [Compound 548] |
| < 100 | O=C(Cc1ccccc1)N[C@@H](CNC(=O)[C@@H]1CCCN(CCCc2ccc3c(n2)NCCC3)C1)C(=O)O [Compound 550] |
| < 100 | O=C(NC[C@H](Nc1cc(-c2ccccc2)ncn1)C(=O)O)[C@@H]1CCCN(CCCc2ccc3c(n2)NCCC3)C1 [Compound 564] |
| < 100 | O=C(NC[C@H](Nc1ccccc1C1CC(F)(F)C1)C(=O)O)[C@@H]1CCCN(CCCc2ccc3c(n2)NCCC3)C1 [Compound 590] |
| < 100 | O=C(NC[C@H](Nc1cccnc1C1CC(F)(F)C1)C(=O)O)[C@@H]1CCCN(CCCc2ccc3c(n2)NCCC3)C1 [Compound 591] |
| < 100 | O=C(NC[C@H](Nc1cccc(C2CC(F)(F)C2)c1)C(=O)O)[C@@H]1CCCN(CCCc2ccc3c(n2)NCCC3)C1 [Compound 592] |
| 100 to 1000 | CC1(C)CN(c2cccc([C@H](CNC(=O)[C@@H]3CCCN(CCCc4ccc5c(n4)NCCC5)C3)C(=O)O)c2)CCO1 [Compound 594] |
| < 100 | CC1(C)COCCN1c1cccc([C@H](CNC(=O)[C@@H]2CCCN(CCCc3ccc4c(n3)NCCC4)C2)C(=O)O)c1 [Compound 596] |
| > 1000 | CC1(C)CCCN(c2cccc([C@H](CNC(=O)[C@@H]3CCCN(CCCc4ccc5c(n4)NCCC5)C3)C(=O)O)c2)C1 [Compound 598] |
| 100 to 1000 | CC1(C)CCN(c2cccc([C@H](CNC(=O)[C@@H]3CCCN(CCCc4ccc5c(n4)NCCC5)C3)C(=O)O)c2)CC1 [Compound 600] |
| 100 to 1000 | C[C@@H]1CN(c2cccc([C@H](CNC(=O)[C@@H]3CCCN(CCCc4ccc5c(n4)NCCC5)C3)C(=O)O)c2)C[C@H](C)O1 [Compound 602] |
